Measured values from patent publication US20180135134A1, “TARGETED SELECTION OF PATIENTS FOR TREATMENT WITH CORTISTATIN DERIVATIVES” (President and Fellows of Harvard College, priority 2015, published 2018).

How the values were obtained:
SK-N-F1 = assay: Soft agar growth assay (Alamar Blue); conditions: Neuroblastoma, 100 nM cortistatin A
Procedure: (§1) For the 62 cell lines 96 well suspension cell culture plates were prepared. 100 μL of the soft agar bottom layer (0.6% final concentration in complete medium) was poured and left to solidify. 50 μL of the soft agar top layer (0.4% final concentration) containing the corresponding cells and cell number were then added on top, solidified and incubated at 37° C., 10% CO2. After the soft agar had solidified, the test items were added at indicated final concentrations into the inner wells of the plate. Subsequently, the assay was incubated in cell culture incubators for 8 to 14 days. Finally, the assay was developed using Alamar Blue and upon 1-5 h of incubation at 37° C. fluorescence intensity was determined (excitation: 560 nm; emission: 590 nm). As low control, cells were treated with 1E-05M Staurosporine (6fold values). As high control, cells were treated with 0.1% DMSO (solvent control, 6 fold values).
(§2) Raw data were converted into percent soft agar growth relative to high controls (solvent 0.1% DMSO) and low controls (1E-05M Staurosporine), which were set to 100% and 0%, respectively.

CDK19 W105M = CDK19 W105M (Homo sapiens, UniProt Q9BWU1, W105M); conditions: expression of CDK19 W105M; FIG. 9
Procedure: (§3) 5′-Flag-tagged CDK8 and CDK19 were cloned from pBabe.puro.CDK8.flag (Addgene 19758) and F-CDK8L (Addgene 24762) into pLVX-EF1alpha-IRES-mCherry and pLVX-EF1alpha-IRES-ZsGreen (Clontech) and transformed into E. coli (One Shot Stbl3, Invitrogen). Point mutations were introduced by whole-plasmid PCR (QuikChange II XL Site-Directed Mutagenesis Kit, Agilent). pLVX lentiviral vectors were co-transfected with psPASx and pMD2.G (Addgene) in 293T cells. After 48 h, viral supernatants were collected and passed through a 0.45 m filter (Millipore). For transductions, 24-well plates were coated with 500 μl of 20 μg ml RetroNectin (Clontech) at 4° C. overnight, blocked with 2% BSA for 30 min, washed with PBS, and 300-500 μl of viral supernatant was added. The plates were centrifuged (2,000 g, 1.5 h) and then set in an incubator. After 2 h, viral supernatant was removed and 500 μl per well of 200,000 cells per ml was added. After 1-3 days, the cells were expanded and isolated by FACS.

SK-ES-1 = assay: Soft agar growth assay (Alamar Blue); conditions: EWS-FLI1, 100 nM cortistatin A
Procedure: as §1, §2

OCI-LY1 = assay: Cellular proliferation assay (CellTiter-Glo); conditions: Homo sapiens
Procedure: (§4) All suspension cells were plated (96-well) in triplicate at 5,000-30,000 cells per well for testing (n=3). Viable cell number was estimated after 3, 7 and 10 days by counting viable cells from one vehicle well, generating a cell dilution series, transferring 20 ml per well in duplicate to a 384-well plate, and performing a linear regression to CellTiter-Glo (Promega) response (SPECTRAmax M3, Molecular Devices). Cells from all wells were also fourfold diluted in media and transferred in duplicate for CellTiter-Glo measurement. On days 3 and 7, an equal volume for all wells was split-back with fresh media and compound, such that the resulting cell density for the vehicle well matched the initial seeding density. For days 7 and 10, estimated cell number represents the split-adjusted theoretical cell number. […] For growth assays with inhibitors, n=3 for each concentration with two independent experiments.

MKPL-1 = assay: Cellular proliferation assay (CellTiter-Glo); conditions: Homo sapiens, 240 h
Procedure: as §4

HL-60 = assay: Cellular proliferation assay (CellTiter-Glo); conditions: Homo sapiens
Procedure: as §4

CDK8/19 [1] = conditions: 1,000 nM cortistatin A; FIG. 7B
Procedure: Native kinome profiling was performed with MOLM-14 cell lysate according to the KiNativ Method by ActivX Biosciences. For each peptide quantified, the change in mass spectrometry signal for the treated samples relative to the signal for the control samples was expressed as percentage inhibition.

ME-1 = assay: Cellular proliferation assay (CellTiter-Glo); conditions: Homo sapiens, ME-1, 240 h
Procedure: as §4

SK.BR-3 = assay: Soft agar growth assay (Alamar Blue); conditions: Breast cancer, HER2 overexpression, 100 nM cortistatin A
Procedure: as §1, §2

CMK-86 = assay: Cellular proliferation assay (CellTiter-Glo); conditions: Homo sapiens
Procedure: as §4

RUNX1 = RUNX1 recruitment to genomic loci; format: cell-based, human; conditions: FIG. 11
HEL = assay: Cellular proliferation assay (CellTiter-Glo); conditions: Homo sapiens
Procedure: as §4

MOLM-16 = assay: Cellular proliferation assay (CellTiter-Glo); conditions: Homo sapiens
Procedure: as §4

CDK8 W105M = target: T1, CDK8 W105M (Homo sapiens, UniProt P49336, W105M); assay: Drug resistant allele growth assay in MOLM-14 cells; format: cell-based; conditions: expression of CDK8 W105M; FIG. 9
T1 construct: host or cells: MOLM-14 cells, lentiviral transduction (pLVX-EF1alpha-IRES vectors)
T1 sequence (P49336 whole entry W105M): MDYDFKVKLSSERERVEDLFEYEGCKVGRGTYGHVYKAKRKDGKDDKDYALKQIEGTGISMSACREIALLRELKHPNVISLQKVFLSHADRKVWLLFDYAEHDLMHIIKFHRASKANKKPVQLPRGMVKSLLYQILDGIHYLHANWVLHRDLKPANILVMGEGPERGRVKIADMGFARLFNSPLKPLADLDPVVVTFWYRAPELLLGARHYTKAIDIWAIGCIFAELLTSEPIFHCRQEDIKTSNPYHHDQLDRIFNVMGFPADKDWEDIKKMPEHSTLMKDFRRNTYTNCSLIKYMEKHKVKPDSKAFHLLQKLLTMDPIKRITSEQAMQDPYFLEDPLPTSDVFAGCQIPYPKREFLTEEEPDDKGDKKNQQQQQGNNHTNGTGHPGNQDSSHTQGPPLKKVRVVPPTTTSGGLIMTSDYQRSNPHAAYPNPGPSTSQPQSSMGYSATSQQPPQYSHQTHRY
T1 sequence (P24863 whole entry partner): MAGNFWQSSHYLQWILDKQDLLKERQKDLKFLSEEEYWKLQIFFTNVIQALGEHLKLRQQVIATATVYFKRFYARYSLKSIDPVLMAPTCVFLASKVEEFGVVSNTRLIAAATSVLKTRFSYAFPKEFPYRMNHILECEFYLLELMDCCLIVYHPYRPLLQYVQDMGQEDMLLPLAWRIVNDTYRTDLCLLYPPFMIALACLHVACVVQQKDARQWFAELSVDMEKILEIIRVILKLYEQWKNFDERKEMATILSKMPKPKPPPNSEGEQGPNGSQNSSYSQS
Procedure: as §3

CDK8/19 [2] = target: T2, CDK8/19 (Homo sapiens, UniProt P49336); assay: Recombinant kinome-wide selectivity profiling (wildtype-profiler, ProQinase), 294 recombinant kinases; format: biochemical; conditions: 600 nM cortistatin A; FIG. 7A
T2 construct: purchased ProQinase GmbH
T2 sequence (P49336 whole entry): as the sequence (P49336 whole entry W105M) above, with M105W counted along it
T2 sequence (P24863 whole entry partner): as the sequence (P24863 whole entry partner) above
Source text: Recombinant kinome-wide selectivity profiling.

RL95-2 = assay: Soft agar growth assay (Alamar Blue); conditions: ER-alpha positive, 100 nM cortistatin A
Procedure: as §1, §2

[3] = tested on: RUNX1 target genes including CEBPA, IRF8 and NFE2; assay: Gene expression in CA-sensitive cell lines SET-2, MOLM-14 and MV4;11; format: cell-based, human; conditions: SET-2, MOLM-14 and MV4;11 cell lines
Procedure: Leukemia cells were plated (12-well) in triplicate at 500,000-800,000 cells per ml and incubated in the presence of vehicle (0.1% DMSO) or CA (25 nM 3 h for K562, MOLM-14 and MV4;11; 10 nM 24 h for MOLM-14; 25 nM 4 h for SET-2, n=3 for each cell line). Cells were then washed twice with cold PBS, and snap frozen. RNA was isolated (RNeasy Plus Microkit, Qiagen or TRIzol, Life Technologies), processed, and, for K562, MOLM-14 and MV4;11, hybridized to the Human U133 Plus 2.0 microarray (Affymetrix). Microarrays were processed with Bioconductor packages affyQCReport for quality control and affy for background correction, summarization, and normalization using rma. […] SET-2 and HCT 116 gene expression was measured by RNA-seq. […] Reads were aligned in two passes, first with rnaStar (v.2.3.0e) then with BWA (v.0.7.5a) for remaining unmapped reads, both using default parameters. Mapped reads were merged and counted using HTSeq (v.0.5.3p3) with -s yes -m intersection-strict. […] Samples were run in a single lane on an Illumina HiSEQ 2000 sequencer with a single read flow cell using 1×50-bp reads and a 6-cycle index read. Reads were mapped to the hgl9 reference genome using Tophat2 v.2.0.6 with custom settings including the setting of—library-type fr—firstrand to appropriately account for the stranded nature of the protocol. […]

SKNO-1 = assay: Cellular proliferation assay (CellTiter-Glo); conditions: Homo sapiens
Procedure: as §4

Kasumi-1 = assay: Cellular proliferation assay (CellTiter-Glo); conditions: Homo sapiens
Procedure: as §4

SET-2 = assay: Cellular proliferation assay (CellTiter-Glo); conditions: for GI50: Homo sapiens
Procedure: as §4

REH = assay: Cellular proliferation assay (CellTiter-Glo); conditions: Homo sapiens
Procedure: as §4

Chain of CDK19 W105M (Q9BWU1 whole entry W105M): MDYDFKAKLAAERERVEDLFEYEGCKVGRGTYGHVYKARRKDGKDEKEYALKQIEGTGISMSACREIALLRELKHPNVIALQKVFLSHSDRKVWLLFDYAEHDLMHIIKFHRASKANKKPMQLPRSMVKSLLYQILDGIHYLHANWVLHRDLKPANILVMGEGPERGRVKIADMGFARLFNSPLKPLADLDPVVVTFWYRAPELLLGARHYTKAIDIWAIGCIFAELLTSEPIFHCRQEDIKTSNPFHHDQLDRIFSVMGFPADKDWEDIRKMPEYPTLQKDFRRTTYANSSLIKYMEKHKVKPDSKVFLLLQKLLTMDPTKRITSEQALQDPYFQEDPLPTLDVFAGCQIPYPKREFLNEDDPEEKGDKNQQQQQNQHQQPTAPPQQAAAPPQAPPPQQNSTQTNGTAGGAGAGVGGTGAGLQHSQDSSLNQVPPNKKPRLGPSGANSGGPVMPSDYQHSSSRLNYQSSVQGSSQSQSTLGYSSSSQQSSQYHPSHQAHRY
Chain of CDK19 W105M (P24863 whole entry partner): as the sequence (P24863 whole entry partner) above

With CN(C)[C@H]1C[C@@]23CC[C@@]4(O2)C(=CC[C@]2(C)[C@@H](c5ccc6ccncc6c5)CC[C@H]24)C=C3[C@@H](O)[C@@H]1O [Cortistatin A, cortistatin A] the “% growth rel. to vehicle” value (SK-N-F1) was 30%, the “growth of MOLM-14 cells expressing drug resistant allele” value (CDK19 W105M) was “able to proliferate in the presence of cortistatin A” and the “% growth rel. to vehicle” value (SK-ES-1) was 36%. It also gave a GI50 (OCI-LY1) of 37 nM, a GI50 (MKPL-1) of 1 nM and a GI50 (HL-60) of 7 nM. For the same compound, the “kinase selectivity (native kinase % inhibition)” value (CDK8/19 [1]) was “selectively inhibits CDK8/19”, the GI50 (ME-1) was 1 nM and the “% growth rel. to vehicle” value (SK.BR-3) was 22%. For the same compound, the GI50 (CMK-86; CMK-86) was 8 nM, the GI50 (CMK-86; CMK-86, 240 h) was 8 nM and the “RUNX1 recruitment to loci” value (RUNX1) was “RUNX1 was recruited to loci upregulated by CA treatment”. For the same compound, the GI50 (HEL) was > 1000 nM, the GI50 (HEL; 240 h) was > 1000 nM and the GI50 (MOLM-16; MOLM16) was < 1 nM. The GI50 (MOLM-16; MOLM16, 240 h) was ≤ 1 nM, the “growth of MOLM-14 cells expressing drug resistant allele” value (CDK8 W105M) was “able to proliferate in the presence of cortistatin A” and the “kinase selectivity (kinase activity percent remaining, 294 recombinant kinases)” value (CDK8/19 [2]) was “selectively inhibits CDK8/19”. For the same compound, the “% growth rel. to vehicle” value (RL95-2) was 16%, the “expression of RUNX1 target genes” value [3] was “upregulated RUNX1 target genes” and the GI50 (SKNO-1; SKNO-1) was 1 nM. It also gave a GI50 (SKNO-1; SKNO-1, 240 h) of 1 nM, a GI50 (Kasumi-1) of 95 nM and a GI50 (SET-2; SET-2) of 4 nM. For the same compound, the GI50 (SET-2; SET-2, 240 h) was 4 nM, the “proliferation of SET-2 cells (theoretical cell number versus days of treatment)” value (SET-2; dose-dependent, FIG. 4) was “inhibits the proliferation of SET-2 cells” and the GI50 (REH) was 1 nM.
